Assay results: patent US20140045823A1 (Neurocrine Biosciences, Inc., priority 2012, published 2014)

target: T1, human GPR119 (Homo sapiens, UniProt Q8TDV5); test: AlphaScreen cAMP assay in MIN6 cells stably transfected with human GPR119; assay type: cell-based; details: Min-6/hGPR119 cells, 45 min at room temperature
T1 construct: expression vector for human GPR119 cDNA (Acc. No. NP_848566); expressed in transfected cells; Min-6/hGPR119
T1 sequence (Q8TDV5 1-335): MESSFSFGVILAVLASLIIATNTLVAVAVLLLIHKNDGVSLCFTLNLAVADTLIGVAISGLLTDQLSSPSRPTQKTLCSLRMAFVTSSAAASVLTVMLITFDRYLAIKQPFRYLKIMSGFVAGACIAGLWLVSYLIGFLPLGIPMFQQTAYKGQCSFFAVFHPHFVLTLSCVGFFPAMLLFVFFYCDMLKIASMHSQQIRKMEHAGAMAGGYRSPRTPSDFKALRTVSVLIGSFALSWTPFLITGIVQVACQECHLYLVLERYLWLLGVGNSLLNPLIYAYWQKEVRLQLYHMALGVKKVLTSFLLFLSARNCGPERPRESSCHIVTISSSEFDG
Procedure, shortened: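 MIN6 cells stably expressing human GPR119, seeded 10000/well and grown 24 h, were exposed to compound in pH 7.4 buffer with 0.5 mM IBMX, 0.1% BSA and 1% DMSO for 45 min at room temperature. Intracellular cAMP then measured by AlphaScreen.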

Row | Structure (SMILES) | EC50
1 | CC(C)(C)OC(=O)N1CCC(N(C(=O)c2cnc(-c3ccc(C(=O)NCc4cocn4)cc3)nc2)C2CC2)CC1 [Example 228, 4-[Cyclopropyl-(2-{4-[(oxazol-4-ylmethyl)-carbamoyl]-phenyl}-pyrimidine-5-carbonyl)-amino]-piperidine-1-carboxylic acid tert-butyl ester] | 0.379 µM
2 | CC(C)(C)OC(=O)N1CCC(N(C(=O)c2cnc(-c3cccc(C#N)c3)nc2)C2CC2)CC1 [Example 75, 4-{[2-(3-Cyano-phenyl)-pyrimidine-5-carbonyl]-cyclopropyl-amino}-piperidine-1-carboxylic acid tert-butyl ester] | 0.17 µM
3 | CC(C)(C)OC(=O)N1CCC(N(C(=O)c2cnc(-c3ccc(C(=O)NCC#N)c(F)c3)nc2)C2CC2)CC1 [Example 109, 4-({2-[4-(Cyanomethyl-carbamoyl)-3-fluoro-phenyl]-pyrimidine-5-carbonyl}-cyclopropyl-amino)-piperidine-1-carboxylic acid tert-butyl ester] | 0.085 µM
4 | CC(C)(C)OC(=O)N1CCC(N(C(=O)c2ncn(-c3ccc(C#N)cc3)n2)C2CC2)CC1 [Example 50, 4-{[1-(4-Cyano-phenyl)-1H-[1,2,4]triazole-3-carbonyl]-cyclopropyl-amino}-piperidine-1-carboxylic acid tert-butyl ester] | 0.505 µM
5 | CC(C)(C)OC(=O)N1CCC(N(C(=O)c2cnc(-c3ccc(C(=O)N4CCCC(O)C4)cc3)nc2)C2CC2)CC1 (stereo not drawn) [Example 190, 4-(Cyclopropyl-{2-[4-(3-hydroxy-piperidine-1-carbonyl)-phenyl]-pyrimidine-5-carbonyl}-amino)-piperidine-1-carboxylic acid tert-buyl ester] | 0.82 µM
6 | CN(Cc1ccncc1)C(=O)c1ccc(-c2ncc(C(=O)N(C3CC3)C3CCN(C(=O)OC(C)(C)C)CC3)cn2)cc1 [Example 170, 4-(Cyclopropyl-{2-[4-(methyl-pyridin-4-ylmethyl-carbamoyl)-phenyl]-pyrimidine-5-carbonyl}-amino)-piperidine-1-carboxylic acid tert-butyl ester] | 0.208 µM
7 | CC(C)(C)OC(=O)N1CCC(N(C(=O)c2cnc(-c3ccc(CC(=O)N4CCC[C@@H]4C#N)cc3)nc2)C2CC2)CC1 [Example 211, 4-[(2-{4-[2-(2-Cyano-pyrrolidin-1-yl)-2-oxo-ethyl]-phenyl}-pyrimidine-5-carbonyl)-cyclopropyl-amino]-piperidine-1-carboxylic acid tert-butyl ester] | 0.561 µM
8 | Cc1ncoc1-c1ccc(C(=O)N(C2CC2)C2CCN(C(=O)OC(C)(C)C)CC2)cn1 [Example 13, 4-{Cyclopropyl-[6-(4-methyl-oxazol-5-yl)-pyridine-3-carbonyl]amino}-piperidine-1-carboxylic acid tert-butyl ester] | 0.132 µM
9 | CC(C)(C)OC(=O)N1CCC(N(C(=O)c2cnc(-c3ccc(C(=O)NCC4(C)CCCO4)c(F)c3)nc2)C2CC2)CC1 (stereo not drawn) [Example 144, 4-[Cyclopropyl-(2-{3-fluoro-4-[(2-methyl-tetrahydro-furan-2-ylmethyl)-carbamoyl]-phenyl}-pyrimidine-5-carbonyl)-amino]-piperidine-1-carboxylic acid tert-butyl ester] | 0.23 µM
10 | CC(C)(C)OC(=O)N1CCC(N(C(=O)c2cnc(-c3ccc(C(=O)NCCS(C)(=O)=O)c(F)c3)nc2)C2CC2)CC1 [Example 123, 4-(Cyclopropyl-{2-[3-fluoro-4-(2-methanesulfonyl-ethylcarbamoyl)-phenyl]-pyrimidine-5-carbonyl}-amino)-piperidine-1-carboxylic acid tert-butyl ester] | 0.637 µM
11 | COCCN(C)C(=O)c1ccc(-c2ncc(C(=O)N(C3CC3)C3CCN(C(=O)OC(C)(C)C)CC3)cn2)cc1 [Example 196, 4-[Cyclopropyl-(2-{4-[(2-methoxy-ethyl)-methyl-carbamoyl]-phenyl}-pyrimidine-5-carbonyl)-amino]-piperidine-1-carboxylic acid tert-butyl ester] | 0.215 µM

Second part, the compound after the results:

Row | EC50 | Structure (SMILES)
12 | 0.309 µM | COCCNC(=O)c1ccc(-c2ncc(C(=O)N(C3CC3)C3CCN(C(=O)OC(C)(C)C)CC3)cn2)cc1 [Example 243, 4-(Cyclopropyl-{2-[4-(2-methoxy-ethylcarbamoyl)-phenyl]-pyrimidine-5-carbonyl}-amino)-piperidine-1-carboxylic acid tert-butyl ester]
13 | 0.319 µM | COCC1CCCCN1C(=O)c1ccc(-c2ncc(C(=O)N(C3CC3)C3CCN(C(=O)OC(C)(C)C)CC3)cn2)cc1 (stereo not drawn) [Example 182, 4-(Cyclopropyl-{2-[4-(2-methoxymethyl-piperidine-1-carbonyl)-phenyl]-pyrimidine-5-carbonyl}-amino)-piperidine-1-carboxylic acid tert-butyl ester]
14 | 0.289 µM | CC(C)(C)OC(=O)N1CCC(N(C(=O)c2cnc(-c3ccc(CC(=O)Nc4ccccc4)cc3)nc2)C2CC2)CC1 [Example 180, 4-{Cyclopropyl-[2-(4-phenylcarbamoylmethyl-phenyl)-pyrimidine-5-carbonyl]-amino}-piperidine-1-carboxylic acid tert-butyl ester]
15 | 0.106 µM | Cc1nccn1-c1ncc(C(=O)N(C2CC2)C2CCN(C(=O)OC3(C)CC3)CC2)cn1 [Example 55, 4-{Cyclopropyl-[2-(2-methyl-imidazol-1-yl)-pyrimidine-5-carbonyl]-amino}-piperidine-1-carboxylic acid 1-methyl-cyclopropyl ester]
16 | 0.12 µM | CC(C)(C)OC(=O)N1CCC(N(C(=O)c2ccc(-c3cnco3)cn2)C2CC2)CC1 [Example 8, 4-[Cyclopropyl-(5-oxazol-5-yl-pyridine-2-carbonyl)-amino]-piperidine-1-carboxylic acid tert-butyl ester]
17 | 0.418 µM | CC(C)(C)OC(=O)N1CCC(N(C(=O)c2cnc(-c3ccc(CC(=O)N4CCC[C@H]4C#N)cc3)nc2)C2CC2)CC1 [Example 214, 4-[(2-{4-[2-(2-Cyano-pyrrolidin-1-yl)-2-oxo-ethyl]-phenyl}-pyrimidine-5-carbonyl)-cyclopropyl-amino]-piperidine-1-carboxylic acid tert-butyl ester]
18 | 0.003 µM | Cc1c(C(=O)N(C2CC2)C2CCN(C(=O)OC(C)(C)C)CC2)noc1-c1ccc(C#N)cc1F [Example 46, 4-{[5-(4-Cyano-2-fluoro-phenyl)-4-methyl-isoxazole-3-carbonyl]-cyclopropyl-amino}-piperidine-1-carboxylic acid tert-butyl ester]
19 | 0.109 µM | CCOCCNC(=O)c1ccc(-c2ncc(C(=O)N(C3CC3)C3CCN(C(=O)OC(C)(C)C)CC3)cn2)cc1F [Example 102, 4-(Cyclopropyl-{2-[4-(2-ethoxy-ethylcarbamoyl)-3-fluoro-phenyl]-pyrimidine-5-carbonyl}-amino)-piperidine-1-carboxylic acid tert-butyl ester]
20 | 0.167 µM | CCOc1ccc(-c2ncc(C(=O)N(C3CC3)C3CCN(C(=O)OC(C)C)CC3)cn2)cn1 [Example 59, 4-{Cyclopropyl-[2-(6-ethoxy-pyridin-3-yl)-pyrimidine-5-carbonyl]-amino}-piperidine-1-carboxylic acid isopropyl ester]
21 | 0.055 µM | COc1ccc(NC(=O)c2ccc(-c3ncc(C(=O)N(C4CC4)C4CCN(C(=O)OC(C)(C)C)CC4)cn3)cc2F)cn1 [Example 122, 4-(Cyclopropyl-{2-[3-fluoro-4-(6-methoxy-pyridin-3-ylcarbamoyl)-phenyl]-pyrimidine-5-carbonyl}-amino)-piperidine-1-carboxylic acid tert-butyl ester]
22 | 1.67 µM | COc1ccccc1-c1ncc(C(=O)N(C2CC2)C2CCN(C(=O)OC(C)(C)C)CC2)cn1 [Example 73, 4-{Cyclopropyl-[2-(2-methoxy-phenyl)-pyrimidine-5-carbonyl]-amino}-piperidine-1-carboxylic acid tert-butyl ester]
23 | 0.639 µM | CC(C)(C)OC(=O)N1CCC(N(C(=O)c2cnc(-c3cnco3)o2)C2CC2)CC1 [Example 33, 4-[([2,5′]Bioxazolyl-5-carbonyl)-cyclopropyl-amino]-piperidine-1-carboxylic acid tert-butyl ester]
24 | 0.312 µM | CN(Cc1ccncc1)C(=O)Cc1ccc(-c2ncc(C(=O)N(C3CC3)C3CCN(C(=O)OC(C)(C)C)CC3)cn2)cc1 [Example 209, 4-[Cyclopropyl-(2-{4-[(methyl-pyridin-4-ylmethyl-carbamoyl)-methyl]-phenyl}-pyrimidine-5-carbonyl)-amino]-piperidine-1-carboxylic acid tert-butyl ester]
25 | 2.78 µM | CC(C)(C)OC(=O)N1CCC(N(C(=O)c2cnc(-n3cccn3)nc2)C2CC2)CC1 [Example 56, 4-[Cyclopropyl-(2-pyrazol-1-yl-pyrimidine-5-carbonyl)-amino]-piperidine-1-carboxylic acid tert-butyl ester]
26 | 0.066 µM | CC(C)(C)OC(=O)N1CCC(N(C(=O)c2cn(-c3ccc(C#N)cc3F)cn2)C2CC2)CC1 [Example 16, 4-{[1-(4-Cyano-2-fluoro-phenyl)-1H-imidazole-4-carbonyl]-cyclopropyl-amino}-piperidine-1-carboxylic acid tert-butyl ester]
27 | 0.179 µM | CC(C)(C)OC(=O)N1CCC(N(C(=O)c2cnc(-c3ccc(C(=O)NCCn4ccc(C5CC5)n4)c(F)c3)nc2)C2CC2)CC1 [Example 169, 4-[Cyclopropyl-(2-{4-[2-(3-cyclopropyl-pyrazol-1-yl)-ethylcarbamoyl]-3-fluoro-phenyl}-pyrimidine-5-carbonyl)-amino]-piperidine-1-carboxylic acid tert-butyl ester]
